Tests used:
WAK91 gene expression = experiment: Chitin sprayed on healthy rice plants; WAK91 expression by QRT-PCR normalized by actin; type: in vivo, rice (Oryza sativa L., cultivar Nipponbare)
Experimental: (§1) FIG. 2: Chitin induces WAK91 expression. Chitin fragments (two concentrations) were sprayed on healthy rice plants. Chitin alone is sufficient to induce WAK91 (up to 4×) in entire plants after 15 minutes. The PR5 and PDX223 classical defense genes are induced later. (A) The expression value of the WAK91, PR5 and PDX223 gene expression (normalized by actin) was measured at the indicated time after treatment. (B) The expression value after chitin treatment was divided by the expression value in untreated plants and the ratio was log transformed.
(§2) Gene expression was performed using Quantitative RT-PCR as described in Vergne et al (2007). For RT-QPCR applications, frozen tissue were ground in liquid nitrogen. Approximately 500 μl of powder was then treated with 1 ml of TRIZOL supplied by Invitrogen, vortexed for 30 s and incubated at room temperature for 15 minutes. […] Two microlitres of cDNA (dilution 1/10) were then used for quantitative RT-PCR. Quantitative RT-PCR mixtures contained PCR buffer, dNTP (0.25 mM), MgCl2 (2.5 mM), forward and reverse primers ([…]), 1 U of HotGoldStar polymerase and SYBR Green PCR mix as per the manufacturer's recommendations (Eurogentec, Seraing, Belgium). […] The quantitative RT-PCR (QRT-PCR) reactions were performed using a MX3000P machine (Stratagene) and data were extracted using the MX3000P software. […]

[1] = system: PR5 and PDX223 classical defense genes; experiment: Chitin sprayed on healthy rice plants; defense gene expression by QRT-PCR normalized by actin; type: in vivo, rice (Oryza sativa L., cultivar Nipponbare); details: chitin fragments sprayed on healthy rice plants; timing relative to WAK91 induction
Experimental: as §1, §2

Substance: chitin
- induction of WAK91 expression (WAK91 gene expression; chitin fragments (two concentrations) sprayed on healthy rice plants, entire plants, after 15 minutes, versus untreated plants): up to 4 ×
- WAK91 induction (in words) (WAK91 gene expression; chitin used as described in Miya et al (2007), FIG. 2): sufficient to cause WAK91 induction
- induction of PR5 and PDX223 defense genes (in words) [1]: induced later
